Reference: US8906897B2, “Antimicrobial agents based on hemin derivatives” (Obschestvo S Ogranichennoi Otvetstvennostiyu …, priority 2009, dated 2014)

Test system: Candida albicans No. 927
Test: Antifungal activity, culture growth with pH indicator
Type: cell-based
Design: key to Test culture growth at various dilutions of the agent: (−) No growth; the indicator is blue; (±) Weak growth; the indicator is yellow, but the precipitate of grown cells looks as a diffuse spot; (+) Strong growth; the indicator is yellow, and the cell precipitate looks as a compact spot
Outline: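 Museum strains grown one day on glucose-peptone-yeast medium at 32° C; compounds two-fold serially diluted (DMSO ≤5% for insoluble ones) in synthetic medium with Bromocresol Blue, ~10^3 CFU/mL. Growth read as blue-to-yellow shift (pH 5.5→4.5) after 1 h at 32° C with stirring, then 27° C: C. neoformans 2 and 5 days, C. albicans 1 and 4 days.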

| SMILES | concentration with practically fungicidal effect (control inoculations from wells on day 1 to 4 post-exposure) | Test culture growth at various dilutions of the agent (dilution 0: 1 × 10^−4 M) | Test culture growth at various dilutions of the agent (dilution : 2 of 1 × 10^−4 M) | Test culture growth at various dilutions of the agent (dilution : 4 of 1 × 10^−4 M) | Test culture growth at various dilutions of the agent (dilution : 8 of 1 × 10^−4 M) | Test culture growth at various dilutions of the agent (dilution : 16 of 1 × 10^−4 M) | Test culture growth at various dilutions of the agent (dilution : 32 of 1 × 10^−4 M) | Test culture growth at various dilutions of the agent (dilution : 64 of 1 × 10^−4 M) |
| --- | --- | --- | --- | --- | --- | --- | --- | --- |
| C=CC1=C(C)c2cc3[n-]c(cc4nc(cc5[n-]c(cc1n2)c(C)c5CCC(=O)N[C@@H](CCC(=O)N[C@@H](CCCNC(=N)N)C(=O)OC)C(=O)N[C@@H](CCCNC(=N)N)C(=O)OC)C(CCC(=O)N[C@@H](CCC(=O)N[C@@H](CCCNC(=N)N)C(=O)OC)C(=O)N[C@@H](CCCNC(=N)N)C(=O)OC)=C4C)c(C)c3C=C.[Cl-].[Fe+3] [Compound XVIII, 6,7-bis[bis(N^α-L-Arginyl Methyl Ester)-L-Glutamyl]-Protohemin IX] | about 5×10^−5 M | − | − | − | ± | ± | ± | ± |
| C=CC1=C(C)c2cc3[n-]c(cc4[n-]c(cc5nc(cc1n2)C(C)=C5C=C)c(C)c4CCC(=O)O)c(CCC(=O)O)c3C.[Cl-].[Fe+3] [Hem, hemin] |  | ± | + | + | + | + | + | + |
| C=CC1=C(C)c2cc3[n-]c(cc4nc(cc5[n-]c(cc1n2)c(C)c5CCC(=O)N[C@@H](CO)C(=O)OC)C(CCC(=O)N[C@@H](CO)C(=O)OC)=C4C)c(C)c3C=C.[Cl-].[Fe+3] [VIII] |  | ± | ± | ± | + | + | + | + |
| C=CC1=C(C)c2cc3[n-]c(cc4nc(cc5[n-]c(cc1n2)c(C)c5CCC(=O)NCCO)C(CCC(=O)NCCO)=C4C)c(C)c3C=C.[Cl-].[Fe+3] [Compound XIV, Protohemin IX 6,7-bis-N-(2-Hydroxyethyl)amide] |  | ± | + | + | + | + | + | + |
| C=CC1=C(C)c2cc3[n-]c(cc4nc(cc5[n-]c(cc1n2)c(C)c5CCC(=O)N[C@@H](CCCNC(=N)N)C(=O)OC)C(CCC(=O)N[C@@H](CCCNC(=N)N)C(=O)OC)=C4C)c(C)c3C=C.[Cl-].[Fe+3] [VII] |  | ± | + | + | + | + | + | + |
